Laboratory results published in the CheMixHub ionic liquid set.

Assay: xn = mol fraction of the nth substance listed

CCCCCCCCCCCC[N+](C)(C)C.[Br-] + O
Settings	electrical conductivity [S/m]	viscosity [mPa·s]
293.15 K, 100 kPa, x1 = 5.406e-05	–	0.982
293.15 K, 100 kPa, x1 = 0.0001081	–	0.984
293.15 K, 100 kPa, x1 = 0.0001622	–	0.985
293.15 K, 100 kPa, x1 = 0.0002162	–	0.987
293.15 K, 100 kPa, x1 = 0.0002702	–	0.989
293.15 K, 100 kPa, x1 = 0.0003242	–	0.991
293.15 K, 100 kPa, x1 = 0.0003783	–	0.993
293.15 K, 100 kPa, x1 = 0.0004323	–	0.995
293.15 K, 100 kPa, x1 = 0.0004863	–	0.999
293.15 K, 100 kPa, x1 = 0.0005403	–	1
293.15 K, 101 kPa, x1 = 5.406e-05	–	0.985
293.15 K, 101 kPa, x1 = 0.0001081	–	0.986
293.15 K, 101 kPa, x1 = 0.0001622	–	0.988
293.15 K, 101 kPa, x1 = 0.0002162	–	0.99
293.15 K, 101 kPa, x1 = 0.0002702	–	0.992
293.15 K, 101 kPa, x1 = 0.0003242	–	0.994
293.15 K, 101 kPa, x1 = 0.0003783	–	0.996
293.15 K, 101 kPa, x1 = 0.0004323	–	0.998
293.15 K, 101 kPa, x1 = 0.0004863	–	1.001
293.15 K, 101 kPa, x1 = 0.0005403	–	1.004
298 K, 101 kPa, x1 = 0.0001567	0.079	–
298 K, 101 kPa, x1 = 0.0001676	0.084	–
298 K, 101 kPa, x1 = 0.000182	0.09	–
298 K, 101 kPa, x1 = 0.0001874	0.093	–
298 K, 101 kPa, x1 = 0.0001946	0.096	–
298 K, 101 kPa, x1 = 0.0002054	0.099	–
298 K, 101 kPa, x1 = 0.0002144	0.105	–
298 K, 101 kPa, x1 = 0.0002252	0.111	–
298 K, 101 kPa, x1 = 0.000236	0.115	–
298.15 K, 100 kPa, x1 = 5.406e-05	–	0.853
298.15 K, 100 kPa, x1 = 0.0001081	–	0.855
298.15 K, 100 kPa, x1 = 0.0001622	–	0.855
298.15 K, 100 kPa, x1 = 0.0002162	–	0.857
298.15 K, 100 kPa, x1 = 0.0002702	–	0.86
298.15 K, 100 kPa, x1 = 0.0003242	–	0.86
298.15 K, 100 kPa, x1 = 0.0003783	–	0.861
298.15 K, 100 kPa, x1 = 0.0004323	–	0.863
298.15 K, 100 kPa, x1 = 0.0004863	–	0.864
298.15 K, 100 kPa, x1 = 0.0005403	–	0.866
298.15 K, 101 kPa, x1 = 4.307e-05	0.02398	–
298.15 K, 101 kPa, x1 = 5.406e-05	–	0.853
298.15 K, 101 kPa, x1 = 5.568e-05	0.0306	–
298.15 K, 101 kPa, x1 = 6.865e-05	0.03743	–
298.15 K, 101 kPa, x1 = 8.144e-05	0.04413	–
298.15 K, 101 kPa, x1 = 9.46e-05	0.0508	–
298.15 K, 101 kPa, x1 = 0.0001068	0.05714	–
298.15 K, 101 kPa, x1 = 0.0001081	–	0.854
298.15 K, 101 kPa, x1 = 0.0001198	0.06364	–
298.15 K, 101 kPa, x1 = 0.0001322	0.06995	–
298.15 K, 101 kPa, x1 = 0.0001456	0.07656	–
298.15 K, 101 kPa, x1 = 0.0001584	0.0829	–
298.15 K, 101 kPa, x1 = 0.0001622	–	0.856
298.15 K, 101 kPa, x1 = 0.0001704	0.08876	–
298.15 K, 101 kPa, x1 = 0.0001857	0.09628	–
298.15 K, 101 kPa, x1 = 0.0002009	0.1036	–
298.15 K, 101 kPa, x1 = 0.0002126	0.1093	–
298.15 K, 101 kPa, x1 = 0.0002162	–	0.858
298.15 K, 101 kPa, x1 = 0.0002243	0.1151	–
298.15 K, 101 kPa, x1 = 0.0002466	0.1259	–
298.15 K, 101 kPa, x1 = 0.0002495	0.1271	–
298.15 K, 101 kPa, x1 = 0.0002564	0.1305	–
298.15 K, 101 kPa, x1 = 0.0002702	–	0.859
298.15 K, 101 kPa, x1 = 0.0002992	0.1437	–
298.15 K, 101 kPa, x1 = 0.000323	0.1474	–
298.15 K, 101 kPa, x1 = 0.0003242	–	0.861
298.15 K, 101 kPa, x1 = 0.0003333	0.1488	–
298.15 K, 101 kPa, x1 = 0.0003783	–	0.862
298.15 K, 101 kPa, x1 = 0.0004323	–	0.864
298.15 K, 101 kPa, x1 = 0.0004863	–	0.861
298.15 K, 101 kPa, x1 = 0.0005403	–	0.867
303.15 K, 100 kPa, x1 = 5.406e-05	–	0.772
303.15 K, 100 kPa, x1 = 0.0001081	–	0.773
303.15 K, 100 kPa, x1 = 0.0001622	–	0.774
303.15 K, 100 kPa, x1 = 0.0002162	–	0.775
303.15 K, 100 kPa, x1 = 0.0002702	–	0.777
303.15 K, 100 kPa, x1 = 0.0003242	–	0.78
303.15 K, 100 kPa, x1 = 0.0003783	–	0.784
303.15 K, 100 kPa, x1 = 0.0004323	–	0.786
303.15 K, 100 kPa, x1 = 0.0004863	–	0.799
303.15 K, 100 kPa, x1 = 0.0005403	–	0.803
303.15 K, 101 kPa, x1 = 5.406e-05	–	0.772
303.15 K, 101 kPa, x1 = 0.0001081	–	0.772
303.15 K, 101 kPa, x1 = 0.0001622	–	0.774
303.15 K, 101 kPa, x1 = 0.0002162	–	0.775
303.15 K, 101 kPa, x1 = 0.0002702	–	0.778
303.15 K, 101 kPa, x1 = 0.0003242	–	0.78
303.15 K, 101 kPa, x1 = 0.0003783	–	0.785
303.15 K, 101 kPa, x1 = 0.0004323	–	0.786
303.15 K, 101 kPa, x1 = 0.0004863	–	0.799
303.15 K, 101 kPa, x1 = 0.0005403	–	0.802
308 K, 101 kPa, x1 = 0.0001513	0.078	–
308 K, 101 kPa, x1 = 0.0001694	0.085	–
308 K, 101 kPa, x1 = 0.0001892	0.094	–
308 K, 101 kPa, x1 = 0.0002486	0.121	–
308 K, 101 kPa, x1 = 0.0002774	0.135	–
308 K, 101 kPa, x1 = 0.0003945	0.155	–
308.15 K, 100 kPa, x1 = 5.406e-05	–	0.696
308.15 K, 100 kPa, x1 = 0.0001081	–	0.697
308.15 K, 100 kPa, x1 = 0.0001622	–	0.698
308.15 K, 100 kPa, x1 = 0.0002162	–	0.699
308.15 K, 100 kPa, x1 = 0.0002702	–	0.701
308.15 K, 100 kPa, x1 = 0.0003242	–	0.705
308.15 K, 100 kPa, x1 = 0.0003783	–	0.708
308.15 K, 100 kPa, x1 = 0.0004323	–	0.711
308.15 K, 100 kPa, x1 = 0.0004863	–	0.715
308.15 K, 100 kPa, x1 = 0.0005403	–	0.716
308.15 K, 101 kPa, x1 = 5.406e-05	–	0.696
308.15 K, 101 kPa, x1 = 0.0001081	–	0.697
308.15 K, 101 kPa, x1 = 0.0001622	–	0.698
308.15 K, 101 kPa, x1 = 0.0002162	–	0.699
308.15 K, 101 kPa, x1 = 0.0002702	–	0.701
308.15 K, 101 kPa, x1 = 0.0003242	–	0.705
308.15 K, 101 kPa, x1 = 0.0003783	–	0.709
308.15 K, 101 kPa, x1 = 0.0004323	–	0.711
308.15 K, 101 kPa, x1 = 0.0004863	–	0.714
308.15 K, 101 kPa, x1 = 0.0005403	–	0.716
313.15 K, 100 kPa, x1 = 5.406e-05	–	0.611
313.15 K, 100 kPa, x1 = 0.0001081	–	0.612
313.15 K, 100 kPa, x1 = 0.0001622	–	0.614
313.15 K, 100 kPa, x1 = 0.0002162	–	0.617
313.15 K, 100 kPa, x1 = 0.0002702	–	0.617
313.15 K, 100 kPa, x1 = 0.0003242	–	0.62
313.15 K, 100 kPa, x1 = 0.0003783	–	0.624
313.15 K, 100 kPa, x1 = 0.0004323	–	0.626
313.15 K, 100 kPa, x1 = 0.0004863	–	0.628
313.15 K, 100 kPa, x1 = 0.0005403	–	0.63
318 K, 101 kPa, x1 = 0.0001513	0.08	–
318 K, 101 kPa, x1 = 0.0001748	0.09	–
318 K, 101 kPa, x1 = 0.0001964	0.101	–
318 K, 101 kPa, x1 = 0.0002252	0.113	–
318 K, 101 kPa, x1 = 0.0002486	0.125	–
318 K, 101 kPa, x1 = 0.000317	0.152	–
318 K, 101 kPa, x1 = 0.0003369	0.157	–
318 K, 101 kPa, x1 = 0.0003945	0.165	–
318 K, 101 kPa, x1 = 0.0004305	0.169	–
318.15 K, 100 kPa, x1 = 5.406e-05	–	0.582
318.15 K, 100 kPa, x1 = 0.0001081	–	0.584
318.15 K, 100 kPa, x1 = 0.0001622	–	0.585
318.15 K, 100 kPa, x1 = 0.0002162	–	0.587
318.15 K, 100 kPa, x1 = 0.0002702	–	0.588
318.15 K, 100 kPa, x1 = 0.0003242	–	0.589
318.15 K, 100 kPa, x1 = 0.0003783	–	0.59
318.15 K, 100 kPa, x1 = 0.0004323	–	0.591
318.15 K, 100 kPa, x1 = 0.0004863	–	0.592
318.15 K, 100 kPa, x1 = 0.0005403	–	0.593

CCCCCCCCCCCCCCCC[N+](C)(C)C.[Br-] + OC[C@@H](O)[C@@H](O)[C@H](O)[C@@H](O)CO + O
viscosity [mPa·s], 100 kPa
Settings	298.15 K	308.15 K	318.15 K
x2 = 0, x1 = 7.21e-06	0.896	0.742	0.617
x2 = 0, x1 = 1.442e-05	0.898	0.744	0.617
x2 = 0, x1 = 2.162e-05	0.9	0.745	0.617

CC[n+]1ccn(C)c1.N#C[S-] + CCOS(=O)(=O)[O-].CC[n+]1ccn(C)c1
100 kPa
Settings	electrical conductivity [S/m]	viscosity [mPa·s]
298.15 K, x1 = 0.67	1.16	43.5
308.15 K, x1 = 0.199	0.688	61.2
313.15 K, x1 = 0.429	1.19	43.1
318.15 K, x1 = 0.9505	3.6	15.57
323.15 K, x1 = 0.899	3.66	13.3
328.15 K, x1 = 0.429	–	22.05
333.15 K, x1 = 0.32	–	22.93
338.15 K, x1 = 0.899	–	9.45
343.15 K, x1 = 0.32	–	17.43
343.15 K, x1 = 0.429	–	14.75
348.15 K, x1 = 0.9505	–	7.21
